Data: patent US10927105B1 (Lundbeck La Jolla Research Center, Inc., priority 2017, dated 2021)

Assays:
[1] = biological target: MAGL (Homo sapiens (Human), UniProt Q99685); test: In vitro competitive activity-based protein profiling (human prefrontal cortex membrane fractions, FP-Rh probe), MAGL band; details: read-out: MAGL IC50 (μM) (human); human prefrontal cortex membrane fractions
[2] = biological target: FAAH (Homo sapiens (Human), UniProt O00519); test: In vitro competitive activity-based protein profiling (human prefrontal cortex membrane fractions, FP-Rh probe), FAAH band; details: read-out: FAAH IC50 (μM) (human); human prefrontal cortex membrane fractions
FAAH, sequence (O00519 whole entry): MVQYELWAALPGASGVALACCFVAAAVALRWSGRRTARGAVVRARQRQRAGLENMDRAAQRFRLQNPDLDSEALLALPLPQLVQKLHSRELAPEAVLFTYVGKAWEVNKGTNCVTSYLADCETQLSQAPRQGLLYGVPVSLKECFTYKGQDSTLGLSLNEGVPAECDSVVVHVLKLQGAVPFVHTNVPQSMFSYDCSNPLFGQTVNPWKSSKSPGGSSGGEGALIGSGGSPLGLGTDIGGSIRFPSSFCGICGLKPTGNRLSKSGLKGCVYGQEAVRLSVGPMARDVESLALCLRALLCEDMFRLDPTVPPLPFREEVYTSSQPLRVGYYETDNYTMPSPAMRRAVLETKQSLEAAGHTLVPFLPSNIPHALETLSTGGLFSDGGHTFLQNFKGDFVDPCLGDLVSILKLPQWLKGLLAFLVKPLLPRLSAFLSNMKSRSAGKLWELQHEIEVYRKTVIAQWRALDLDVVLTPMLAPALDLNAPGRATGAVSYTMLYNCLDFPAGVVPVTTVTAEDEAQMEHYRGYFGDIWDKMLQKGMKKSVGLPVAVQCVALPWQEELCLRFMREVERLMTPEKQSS
Method: Biological Evaluation In Vitro Competitive Activity-Based Protein Profiling.
Proteomes (mouse brain membrane fraction for mouse assays; human prefrontal cortex membrane fractions for human assays) (50 mL, 1.0 mg/mL total protein concentration) were preincubated with varying concentrations of inhibitors at 37° C. After 30 min, FP-Rh (1.0 mL, 50 mM in DMSO) was added and the mixture was incubated for another 30 min at 37° C. Reactions were quenched with SDS loading buffer (15 μL-4×) and run on SDS-PAGE.

MAGL, sequence (Q99685 whole entry): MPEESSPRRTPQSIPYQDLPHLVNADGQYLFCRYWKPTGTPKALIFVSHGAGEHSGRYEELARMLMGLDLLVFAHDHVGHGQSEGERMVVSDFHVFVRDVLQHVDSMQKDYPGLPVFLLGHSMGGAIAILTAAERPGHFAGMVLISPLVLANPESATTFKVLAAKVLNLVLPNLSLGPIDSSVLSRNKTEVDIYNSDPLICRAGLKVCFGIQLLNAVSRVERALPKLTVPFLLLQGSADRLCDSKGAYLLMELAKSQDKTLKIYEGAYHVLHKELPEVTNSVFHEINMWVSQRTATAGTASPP

IC50 [1]	IC50 [2]	SMILES
< 0.1 µM	–	CNC(=O)c1ccn(C(=O)N2C[C@H]3C[C@@H](N(C)Cc4ccccc4C(F)(F)F)C[C@H]3C2)n1 [Example 434, N-methyl-1-(cis-5-(methyl(2-(trifluoromethyl)-benzyl)amino)-octahydrocyclopenta-[c]pyrrole-2-carbonyl)-1H-pyrazole-3-carboxamide]
< 0.1 µM	–	CNC(=O)c1ccn(C(=O)N2CCC3(CCN(Cc4cc(Cl)cc(C(F)(F)F)c4)C3)C2)n1 (stereo not drawn) [Example 435, 1-(7-(3-chloro-5-(trifluoromethyl)-benzyl)-2,7-diazaspiro[4.4]-nonane-2-carbonyl)-N-methyl-1H-pyrazole-3-carboxamide]
< 0.1 µM	–	NC(=O)c1ccn(C(=O)N2CCC3(CCN(Cc4ccc(N5CCOCC5)cc4C(F)(F)F)C3)C2)n1 (stereo not drawn) [Example 436, 1-(7-(4-morpholino-2-(trifluoromethyl)-benzyl)-2,7-diazaspiro-[4.4]nonane-2-carbonyl)-1H-pyrazole-3-carboxamide]
< 0.1 µM	–	CNC(=O)c1ccn(C(=O)N2CC3CN(Cc4cc(Cl)cc(C(F)(F)F)c4)CC3C2)n1 (stereo not drawn) [Example 437, 1-(5-(3-chloro-5-(trifluoromethyl)-benzyl)-octahydropyrrolo-[3,4-c]pyrrole-2-carbonyl)-N-methyl-1H-pyrazole-3-carboxamide]
< 0.1 µM	–	CNC(=O)c1ccn(C(=O)N2C[C@H]3C[C@@H](N(C)Cc4ccc(C(F)(F)F)cc4)C[C@H]3C2)n1 [Example 439, N-methyl-1-(cis-5-(methyl(4-(trifluoromethyl)-benzyl)amino)-octahydrocyclopenta-[c]pyrrole-2-carbonyl)-1H-pyrazole-3-carboxamide]
< 0.1 µM	–	CNC(=O)c1ccn(C(=O)N2CC3CN(Cc4ccc(N5CCOCC5)cc4C(F)(F)F)CC3C2)n1 (stereo not drawn) [Example 440, N-methyl-1-(5-(4-morpholino-2-(trifluoromethyl)-benzyl)-octahydropyrrolo-[3,4-c]pyrrole-2-carbonyl)-1H-pyrazole-3-carboxamide]
< 0.1 µM	–	Cc1cn(C(=O)N2CCN(Cc3cccc(Oc4ccc(Cl)cc4)c3)C[C@@H]2C)nc1C(=O)O [Example 442, (S)-1-(4-(3-(4-chlorophenoxy)-benzyl)-2-methylpiperazine-1-carbonyl)-4-methyl-1H-pyrazole-3-carboxylic acid]
< 0.1 µM	–	O=C(O)c1nn(C(=O)N2CCN(Cc3ccc(C(F)(F)F)cc3N3CCCC3)CC2)cc1Cl [Example 443, 4-chloro-1-(4-(2-(pyrrolidin-1-yl)-4-(trifluoromethyl)-benzyl)-piperazine-1-carbonyl)-1H-pyrazole-3-carboxylic acid]
< 0.1 µM	–	CC(C)COc1cccc(O[C@H]2C[C@@H]3CN(C(=O)n4ccc(C(=O)O)n4)C[C@@H]3C2)c1Cl [Example 448]
< 0.1 µM	–	C[C@H]1CN(Cc2cccc(OCC(C)(C)O)c2Cl)CCN1C(=O)n1ccc(C(N)=O)n1 [Example 450, (S)-1-(4-(2-chloro-3-(2-hydroxy-2-methylpropoxy)-benzyl)-2-methylpiperazine-1-carbonyl)-1H-pyrazole-3-carboxamide]
< 0.1 µM	–	CC(C)(O)COc1cccc(O[C@H]2C[C@@H]3CN(C(=O)n4ccc(C(=O)O)n4)C[C@@H]3C2)c1Cl [Example 451, 1-(trans-5-(2-chloro-3-(2-hydroxy-2-methylpropoxy)-phenoxy)-octahydrocyclopenta-[c]pyrrole-2-carbonyl)-1H-pyrazole-3-carboxylic acid]
< 0.1 µM	–	O=C(O)c1ccn(C(=O)N2CCN(Cc3cccc(C(F)(F)F)c3N3CCOCC3)CC2)n1 [Example 453, 1-(4-(2-morpholino-3-(trifluoromethyl)-benzyl)-piperazine-1-carbonyl)-1H-pyrazole-3-carboxylic acid]

More lines, now with the values behind:

SMILES	IC50 [1]	IC50 [2]
NC(=O)c1ccn(C(=O)N2CC3CN(Cc4ccc(N5CCOCC5)cc4C(F)(F)F)CC3C2)n1 (stereo not drawn) [Example 17, 1-(5-(4-Morpholino-2-(trifluoromethyl)benzyl)octahydropyrrolo[3,4-c]pyrrole-2-carbonyl)-1H-pyrazole-3-carboxamide]	< 0.1 µM	< 0.1 µM
O=C(O)c1ccn(C(=O)N2C[C@H]3C[C@H](OCc4ccc(Oc5ccc(Cl)cc5)cc4)C[C@H]3C2)n1 [Example 55, 1-(trans-5-((4-(4-chlorophenoxy)-benzyl)oxy)-octahydrocyclopenta-[c]pyrrole-2-carbonyl)-1H-pyrazole-3-carboxylic acid]	< 0.1 µM	< 0.1 µM
NC(=O)c1ccn(C(=O)N2CCC3(CCN(Cc4cc(Cl)ccc4C(F)(F)F)C3)CC2)n1 [Example 99, 1-(2-(5-chloro-2-(trifluoromethyl)-benzyl)-2,8-diazaspiro[4.5]-decane-8-carbonyl)-1H-pyrazole-3-carboxamide]	< 0.1 µM	< 0.1 µM
O=C(O)c1ccn(C(=O)N2C[C@H]3C[C@H](Oc4cccc(-c5ccccc5)c4)C[C@H]3C2)n1 [Example 125, 1-(trans-5-([1,1′-biphenyl]-3-yloxy)-octahydrocyclopenta-[c]pyrrole-2-carbonyl)-1H-pyrazole-3-carboxylic acid]	< 0.1 µM	< 0.1 µM
CN(Cc1ccccc1Cl)[C@H]1C[C@@H]2CN(C(=O)n3cc(Cl)c(C(N)=O)n3)C[C@@H]2C1 [Example 128, 4-chloro-1-(trans-5-((2-chlorobenzyl)-(methyl)amino)-octahydrocyclopenta-[c]pyrrole-2-carbonyl)-1H-pyrazole-3-carboxamide]	< 0.1 µM	< 0.1 µM
O=C(O)c1nn(C(=O)N2CCN(Cc3cccc(Oc4ccc(Cl)cc4)c3)CC2)cc1Cl [Example 132, 4-chloro-1-(4-(3-(4-chlorophenoxy)-benzyl)-piperazine-1-carbonyl)-1H-pyrazole-3-carboxylic acid]	< 0.1 µM	< 0.1 µM
O=C(O)c1nn(C(=O)N2CCC3(CCCN3Cc3cc4ccc(C(F)(F)F)cc4s3)CC2)cc1Cl [Example 139, 4-chloro-1-(1-((6-(trifluoromethyl)-benzo[b]thiophen-2-yl)methyl)-1,8-diazaspiro[4.5]-decane-8-carbonyl)-1H-pyrazole-3-carboxylic acid]	< 0.1 µM	< 0.1 µM
C#Cc1ccc(CN2CCN(C(=O)n3ccc(C(N)=O)n3)CC2)cc1 [Example 144, 1-(4-(4-ethynylbenzyl)-piperazine-1-carbonyl)-1H-pyrazole-3-carboxamide]	< 0.1 µM	< 0.1 µM
O=C(O)c1ccn(C(=O)N2C[C@H]3C[C@H](OCc4cccc(Oc5ccc(Cl)cc5)c4)C[C@H]3C2)n1 [Example 158, 1-(trans-5-((3-(4-chlorophenoxy)-benzyl)oxy)-octahydrocyclopenta-[c]pyrrole-2-carbonyl)-1H-pyrazole-3-carboxylic acid]	< 0.1 µM	< 0.1 µM
O=C(O)c1ccn(C(=O)N2CCN(Cc3cc(F)cc(Oc4ccc(Cl)cc4)c3)CC2)n1 [Example 161, 1-(4-(3-(4-chlorophenoxy)-5-fluorobenzyl)-piperazine-1-carbonyl)-1H-pyrazole-3-carboxylic acid]	< 0.1 µM	< 0.1 µM
NC(=O)c1ccn(C(=O)N2CCC3(CCN(Cc4cc(Cl)cc(C(F)(F)F)c4)C3)C2)n1 (stereo not drawn) [Example 433, 1-(7-(3-chloro-5-(trifluoromethyl)-benzyl)-2,7-diazaspiro[4.4]-nonane-2-carbonyl)-1H-pyrazole-3-carboxamide]	< 0.1 µM	–
